Results from the supplement of paper PMC10307832.

What was measured:
Assay in all cases: relative viability (nuclei count vs DMSO), 5 days (fraction); higher = more cells survive
AZD1208 + Linsitinib = compound: N[C@@H]1CCCN(c2c(/C=C3\SC(=O)NC3=O)cccc2-c2ccccc2)C1 [AZD1208] + C[C@]1(O)C[C@@H](c2nc(-c3ccc4ccc(-c5ccccc5)nc4c3)c3c(N)nccn32)C1 [Linsitinib] (partner 1 µM)
In short: (§1)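 Lung cancer cell lines in 1536-well plates were dosed by pin tool the day after seeding, either with one drug alone or with a fixed anchor-drug dose plus five library-drug doses (not always all listed) in √10 steps. After 5 days, cells were fixed and their nuclei stained in one step (final 0.05% Triton X-100, 1% formaldehyde, 1 ug/ml Hoechst), then counted on 4× images. Relative viability is the nuclei count in treated wells divided by that in vehicle wells. Values are medians of duplicate plates.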

XMD14-99 + Tozasertib = compound: CN1CCN(CC1)C2=CC(=C(C=C2)NC3=NC(=C(S3)C(=O)C4=C(C=CC=C4Cl)Cl)N)OC [XMD14-99] + Cc1cc(Nc2cc(N3CCN(C)CC3)nc(Sc3ccc(NC(=O)C4CC4)cc3)n2)n[nH]1 [Tozasertib] (partner 0.1 µM)
In short: as §1

AZD1208 + Navitoclax = compound: N[C@@H]1CCCN(c2c(/C=C3\SC(=O)NC3=O)cccc2-c2ccccc2)C1 [AZD1208] + CC1(C)CCC(c2ccc(Cl)cc2)=C(CN2CCN(c3ccc(C(=O)NS(=O)(=O)c4ccc(N[C@H](CCN5CCOCC5)CSc5ccccc5)c(S(=O)(=O)C(F)(F)F)c4)cc3)CC2)C1 [Navitoclax] (partner 0.5 µM)
In short: as §1

AZD1208 + Palbociclib = compound: N[C@@H]1CCCN(c2c(/C=C3\SC(=O)NC3=O)cccc2-c2ccccc2)C1 [AZD1208] + CC(=O)c1c(C)c2cnc(Nc3ccc(N4CCNCC4)cn3)nc2n(C2CCCC2)c1=O [Palbociclib] (partner 0.5 µM)
In short: as §1

Cell Line | relative viability (AZD1208 + Linsitinib; first compound 0.08 µM) | relative viability (AZD1208 + Linsitinib; first compound 0.253 µM) | relative viability (AZD1208 + Linsitinib; first compound 0.8 µM) | relative viability (AZD1208 + Linsitinib; first compound 2.53 µM) | relative viability (AZD1208 + Linsitinib; first compound 8 µM) | relative viability (XMD14-99 + Tozasertib; first compound 0.08 µM) | relative viability (XMD14-99 + Tozasertib; first compound 0.8 µM) | relative viability (XMD14-99 + Tozasertib; first compound 2.53 µM) | relative viability (XMD14-99 + Tozasertib; first compound 8 µM) | relative viability (AZD1208 + Navitoclax; first compound 0.08 µM) | relative viability (AZD1208 + Navitoclax; first compound 0.253 µM) | relative viability (AZD1208 + Navitoclax; first compound 0.8 µM) | relative viability (AZD1208 + Navitoclax; first compound 2.53 µM) | relative viability (AZD1208 + Navitoclax; first compound 8 µM) | relative viability (AZD1208 + Palbociclib; first compound 0.08 µM) | relative viability (AZD1208 + Palbociclib; first compound 0.253 µM) | relative viability (AZD1208 + Palbociclib; first compound 0.8 µM) | relative viability (AZD1208 + Palbociclib; first compound 2.53 µM) | relative viability (AZD1208 + Palbociclib; first compound 8 µM)
HCC-366 | 0.626 | 0.588 | 0.5 | 0.558 | 0.439 | 0.117 | 0.109 | 0.657 | 0.0463 | 1.1 | 0.965 | 1.02 | 1.05 | 0.927 | 0.408 | 0.482 | 0.376 | 0.404 | 0.245
BEN | 0.815 | 0.806 | 0.654 | 0.572 | 0.46 | 0.478 | 0.471 | 0.5 | 0.428 | 0.0677 | 0.0668 | 0.0589 | 0.0576 | 0.125 | 0.565 | 0.446 | 0.472 | 0.505 | 0.431
NCI-H2347 | 0.936 | 0.94 | 0.91 | 0.942 | 0.909 | 0.555 | 0.641 | 0.442 | 0.405 | 0.917 | 0.94 | 0.685 | 0.794 | 0.716 | 0.457 | 0.383 | 0.45 | 0.395 | 0.382
NCI-H1395 | 0.989 | 1.15 | 0.979 | 1.07 | 0.881 | 0.689 | 0.79 | 0.537 | 0.651 | 1.05 | 1.23 | 0.956 | 1.02 | 0.872 | 0.598 | 0.653 | 0.572 | 0.62 | 0.521
201T | 1.02 | 1.05 | 0.989 | 1.01 | 0.979 | 0.899 | 0.915 | 0.886 | 0.669 | 1.24 | 1.23 | 1.25 | 1.24 | 1.31 | 0.371 | 0.366 | 0.351 | 0.35 | 0.34
NCI-H520 | 0.904 | 1.07 | 0.808 | 0.819 | 0.83 | 0.432 | 0.438 | 0.363 | 0.338 | 0.973 | 1.22 | 0.991 | 0.838 | 0.767 | 0.188 | 0.195 | 0.146 | 0.205 | 0.186
NCI-H727 | 0.29 | 0.219 | 0.264 | 0.259 | 0.225 | 0.661 | 0.558 | 0.532 | 0.342 | 0.421 | 0.357 | 0.331 | 0.316 | 0.29 | 0.597 | 0.628 | 0.64 | 0.614 | 0.56
HCC-15 | 0.811 | 0.864 | 0.648 | 0.793 | 0.655 | 0.421 | 0.31 | 0.322 | 0.199 | 0.632 | 0.725 | 0.55 | 0.642 | 0.612 | 0.748 | 0.872 | 0.68 | 0.711 | 0.657
NCI-H460 | 0.724 | 0.843 | 0.817 | 0.711 | 0.539 | 0.408 | 0.376 | 0.45 | 0.188 | 1.05 | 1.34 | 1.17 | 1.26 | 1.16 | 0.195 | 0.19 | 0.223 | 0.15 | 0.159
EPLC-272H | 1.31 | 1.17 | 0.995 | 1.21 | 1.09 | 0.348 | 0.307 | 0.264 | 0.324 | 1.08 | 1.24 | 1.08 | 1.04 | 0.897 | 0.363 | 0.34 | 0.326 | 0.308 | 0.373
